Data from patent publication US11459329B2, “Imidazopyridazine and imidazopyridine compounds and uses thereof” (Incyte Corporation, priority 2018, dated 2022).

Target: ALK2 (aa 147-end) (Homo sapiens (Human), UniProt Q04771)
Test: ALK2 HTRF Assay
Assay type: biochemical
Conditions: not given
Protocol: The enzymatic assays were conducted in white 384-well polystyrene plates in a final volume of 8 μL. The inhibitors were serially diluted in DMSO and added to the plate wells prior to addition of the other reaction components. The assays were carried out at 25° C. in the assay buffer (50 mM HEPES, pH 7.0, 10% Glycerol, 0.01% Brij50, 10 mM MgCl2, 1 mM EGTA, 5 mM DTT, and 0.01% BSA), containing 50 nM LANCE Ultra ULight™-DNA Topoisomerase 2-alpha peptide (Perkin Elmer TRF0130), and 3 μM ATP. The final concentration of DMSO in the assay was 1% and the enzyme concentration was 0.5 nM for ALK2. […] […] IC50 determination was performed by fitting percent control activity versus the log of the inhibitor concentration using the IDBS XLFit and GraphPad Prism 5.0 software.

Chain of ALK2 (aa 147-end) (Q04771 147-509): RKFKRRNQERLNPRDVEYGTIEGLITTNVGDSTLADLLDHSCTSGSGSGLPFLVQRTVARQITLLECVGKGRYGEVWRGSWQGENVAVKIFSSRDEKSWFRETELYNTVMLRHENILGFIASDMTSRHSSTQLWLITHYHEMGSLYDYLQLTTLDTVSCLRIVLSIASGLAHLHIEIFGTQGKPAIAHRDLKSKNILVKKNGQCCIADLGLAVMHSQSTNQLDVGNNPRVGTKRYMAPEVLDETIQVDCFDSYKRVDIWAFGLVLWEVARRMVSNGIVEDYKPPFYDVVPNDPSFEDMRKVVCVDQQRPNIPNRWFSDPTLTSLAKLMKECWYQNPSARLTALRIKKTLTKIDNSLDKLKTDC

| SMILES | IC50 [nM] |
| --- | --- |
| Cc1nn2c(-c3ccnc4nc(-c5cnn(C)c5)ccc34)cnc2cc1-c1cnn(C(C)C)c1 [Example 51, 5-(7-(1-Isopropyl-1H-pyrazol-4-yl)-6-methylimidazo[1,2-b]pyridazin-3-yl)-2-(1-methyl-1H-pyrazol-4-yl)-1,8-naphthyridine] | 1 to 5 |
| Cc1nn2c(-c3ccnc4cc(N5CCOCC5)ccc34)cnc2cc1-c1ccc(N2CCNCC2)cc1 [Example 20, 4-(4-(6-methyl-7-(4-(piperazin-1-yl)phenyl)imidazo[1,2-b]pyridazin-3-yl)quinolin-7-yl)morpholine] | 1 to 5 |

Same assay, conditions: 3 μM ATP, 0.5 nM ALK2, 2 hr, 25° C.; read-out: ALK2 IC50

| SMILES | IC50 [nM] |
| --- | --- |
| CCn1cnc(-c2ccc3c(-c4cnc5cc(-c6ccc(CN7CCC(C)(O)CC7)cc6)c(C)nn45)ccnc3n2)c1 [Example 72, 1-(4-(3-(7-(1-Ethyl-1H-imidazol-4-yl)-1,8-naphthyridin-4-yl)-6-methylimidazo[1,2-b]pyridazin-7-yl)benzyl)-4-methylpiperidin-4-ol] | < 1 |
| Cc1nn2c(-c3ccnc4cc(CN5CCOCC5)ccc34)cnc2cc1-c1ccc(N2CCNCC2)cc1 [Example 24, 4-((4-(6-methyl-7-(4-(piperazin-1-yl)phenyl)imidazo[1,2-b]pyridazin-3-yl)quinolin-7-yl)methyl)morpholine] | 5 to 100 |
| Cc1nn2c(-c3ccnc4c3OCCO4)cnc2cc1-c1ccc(N2CCNCC2)cc1 [Example 29, 8-(6-methyl-7-(4-(piperazin-1-yl)phenyl)imidazo[1,2-b]pyridazin-3-yl)-2,3-dihydro-[1,4]dioxino[2,3-b]pyridine] | < 1 |
| Cc1cn2c(-c3ccc(C(N)=O)c(F)c3)cnc2cc1-c1cnn(C2CCNCC2)c1 [Example 36, 2-fluoro-4-(6-methyl-7-(1-(piperidin-4-yl)-1H-pyrazol-4-yl)imidazo[1,2-a]pyridin-3-yl)benzamide] | < 1 |
| Cc1cnn(-c2ccc3c(-c4cnc5cc(-c6ccc(CN7CCCC7)cc6)c(C)nn45)ccnc3n2)n1 [Example 60, 2-(4-Methyl-2H-1,2,3-triazol-2-yl)-5-(6-methyl-7-(4-(pyrrolidin-1-ylmethyl)phenyl)imidazo[1,2-b]pyridazin-3-yl)-1,8-naphthyridine] | 1 to 5 |
| Cc1cnn(-c2ccc3c(-c4cnc5cc(-c6ccc(CN7CCC(O)CC7)cc6)c(C)nn45)ccnc3n2)n1 [Example 67, 1-(4-(6-methyl-3-(7-(4-methyl-2H-1,2,3-triazol-2-yl)-1,8-naphthyridin-4-yl)imidazo[1,2-b]pyridazin-7-yl)benzyl)piperidin-4-ol] | < 1 |
| Cc1cnn(-c2ccc3c(-c4cnc5cc(-c6ccc(CN(C)C)cc6)c(C)nn45)ccnc3n2)n1 [Example 65, N,N-dimethyl-1-(4-(6-methyl-3-(7-(4-methyl-2H-1,2,3-triazol-2-yl)-1,8-naphthyridin-4-yl)imidazo[1,2-b]pyridazin-7-yl)phenyl)methanamine] | 1 to 5 |
| CCOC(=O)N1CCN(C(=O)c2nn3c(-c4ccnc5ccccc45)cnc3cc2-c2ccc(N3CCNCC3)cc2)CC1 [Example 4, Ethyl 4-(7-(4-(piperazin-1-yl)phenyl)-3-(quinolin-4-yl)imidazo[1,2-b]pyridazine-6-carbonyl)piperazine-1-carboxylate] | 5 to 100 |
| CCn1cnc(-c2ccc3c(-c4cnc5cc(-c6ccc(CN7CCO[C@@H](C)C7)cc6)c(C)nn45)ccnc3n2)c1 [Example 58, (S)-4-(4-(3-(7-(1-ethyl-1H-imidazol-4-yl)-1,8-naphthyridin-4-yl)-6-methylimidazo[1,2-b]pyridazin-7-yl)benzyl)-2-methylmorpholine] | < 1 |
| CCn1cnc(-c2ccc3c(-c4cnc5cc(-c6ccc(CN(C)C)cc6)c(C)nn45)ccnc3n2)c1 [Example 54, 1-(4-(3-(7-(1-Ethyl-1H-imidazol-4-yl)-1,8-naphthyridin-4-yl)-6-methylimidazo[1,2-b]pyridazin-7-yl)phenyl)-N,N-dimethylmethanamine] | < 1 |
| COC(=O)c1nn2c(-c3ccnc4ccccc34)cnc2cc1-c1ccc(N2CCNCC2)cc1 [Example 2, Methyl 7-(4-(piperazin-1-yl)phenyl)-3-(quinolin-4-yl)imidazo[1,2-b]pyridazine-6-carboxylate] | < 1 |
| Cc1nn2c(-c3ccnc4cc(-c5ccncc5)ccc34)cnc2cc1-c1ccc(N2CCN(CCO)CC2)cc1 [Example 11, 2-(4-(4-(6-Methyl-3-(7-(pyridin-4-yl)quinolin-4-yl)imidazo[1,2-b]pyridazin-7-yl)phenyl)piperazin-1-yl)ethan-1-ol] | < 1 |
| Cc1nn2c(-c3ccnc4cc(-c5ccnc(CO)c5)ccc34)cnc2cc1-c1ccc(N2CCNCC2)cc1 [Example 19, (4-(4-(6-methyl-7-(4-(piperazin-1-yl)phenyl)imidazo[1,2-b]pyridazin-3-yl)quinolin-7-yl)pyridin-2-yl)methanol] | 1 to 5 |
| Cc1nn2c(-c3ccnc4cc(-c5ccncc5)ccc34)cnc2cc1-c1ccc(C(=O)N2CCN(C)CC2)cc1 [Example 14, (4-(6-Methyl-3-(7-(pyridin-4-yl)quinolin-4-yl)imidazo[1,2-b]pyridazin-7-yl)phenyl)(4-methylpiperazin-1-yl)methanone] | 1 to 5 |
| Cc1nn2c(-c3ccnc4cc(-c5ccn(C)n5)ccc34)cnc2cc1-c1ccc(N2CCNCC2)cc1 [Example 18, 7-(1-methyl-1H-pyrazol-3-yl)-4-(6-methyl-7-(4-(piperazin-1-yl)phenyl)imidazo[1,2-b]pyridazin-3-yl)quinoline] | 1 to 5 |
| Cc1cnn(-c2ccc3c(-c4cnc5cc(-c6ccc(CN(C)C)cc6)c(C)nn45)ccnc3n2)n1 [Example 63, N,N-dimethyl-1-(4-(6-methyl-3-(7-(4-methyl-2H-1,2,3-triazol-2-yl)-1,8-naphthyridin-4-yl)imidazo[1,2-b]pyridazin-7-yl)phenyl)methanamine] | 1 to 5 |
| Cc1nn2c(-c3ccnc4cc(N5CC6(CCOC6)C5)ccc34)cnc2cc1-c1ccc(N2CCNCC2)cc1 [Example 21, 2-(4-(6-methyl-7-(4-(piperazin-1-yl)phenyl)imidazo[1,2-b]pyridazin-3-yl)quinolin-7-yl)-6-oxa-2-azaspiro[3.4]octane] | 5 to 100 |
| CCn1cnc(-c2ccc3c(-c4cnc5cc(-c6cnn(C(C)C)c6)c(C)nn45)ccnc3n2)c1 [Example 55, 2-(1-Ethyl-1H-imidazol-4-yl)-5-(7-(1-isopropyl-1H-pyrazol-4-yl)-6-methylimidazo[1,2-b]pyridazin-3-yl)-1,8-naphthyridine] | 1 to 5 |
| Cc1nn2c(-c3ccnc4c(C(=O)NCCO)cccc34)cnc2cc1-c1ccc(N2CCNCC2)cc1 [Example 31, N-(2-hydroxyethyl)-4-(6-methyl-7-(4-(piperazin-1-yl)phenyl)imidazo[1,2-b]pyridazin-3-yl)quinoline-8-carboxamide] | > 100 |
| Cc1nn2c(-c3ccnc4nc(-c5cnccn5)ccc34)cnc2cc1-c1ccc(CN2CCC2)cc1 [Example 42, 5-(7-(4-(Azetidin-1-ylmethyl)phenyl)-6-methylimidazo[1,2-b]pyridazin-3-yl)-2-(pyrazin-2-yl)-1,8-naphthyridine] | 1 to 5 |
| C[C@]1(O)CC[C@H](NC(=O)c2nn3c(-c4ccnc5ccccc45)cnc3cc2-c2ccc(N3CCNCC3)cc2)CC1 [Example 3, N-((1R,4R)-4-Hydroxy-4-methylcyclohexyl)-7-(4-(piperazin-1-yl)phenyl)-3-(quinolin-4-yl)imidazo[1,2-b]pyridazine-6-carboxamide] | 5 to 100 |
